For this assay, the target named is T1, SIRT1 (Homo sapiens, UniProt Q96EB6).
T1 sequence (Q96EB6 1-747): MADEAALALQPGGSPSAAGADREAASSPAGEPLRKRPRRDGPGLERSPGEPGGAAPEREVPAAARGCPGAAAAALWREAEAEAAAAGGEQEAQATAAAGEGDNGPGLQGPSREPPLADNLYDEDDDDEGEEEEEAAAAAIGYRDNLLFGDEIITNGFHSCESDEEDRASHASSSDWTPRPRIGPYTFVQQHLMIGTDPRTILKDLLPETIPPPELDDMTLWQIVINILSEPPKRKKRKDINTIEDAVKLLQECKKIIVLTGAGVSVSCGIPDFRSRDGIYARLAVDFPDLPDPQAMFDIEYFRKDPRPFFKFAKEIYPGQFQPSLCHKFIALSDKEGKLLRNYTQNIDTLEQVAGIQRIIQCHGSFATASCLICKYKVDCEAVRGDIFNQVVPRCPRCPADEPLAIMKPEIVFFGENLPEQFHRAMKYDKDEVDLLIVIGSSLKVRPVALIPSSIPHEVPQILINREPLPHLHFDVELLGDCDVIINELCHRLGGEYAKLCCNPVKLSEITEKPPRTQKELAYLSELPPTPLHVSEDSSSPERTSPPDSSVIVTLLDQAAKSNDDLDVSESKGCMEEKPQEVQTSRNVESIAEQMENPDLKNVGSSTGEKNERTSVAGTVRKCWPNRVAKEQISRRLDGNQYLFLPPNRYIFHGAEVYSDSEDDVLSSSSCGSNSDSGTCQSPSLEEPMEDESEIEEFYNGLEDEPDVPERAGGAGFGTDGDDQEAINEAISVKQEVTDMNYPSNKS
Nature of the assay: TAMRA based mass spectrometry assay of SIRT1 activity. The format is biochemical. The note with it: TAMRA peptide substrate; for TAMRA EC1.5 (μM): concentration of test compound giving 150% activation of SIRT1; for Emax: percent maximum fold activation of SIRT1, read-out: TAMRA % Fold Act. The source says: Mass spectrometry based assays were used to identify modulators of SIRT1 activity. The TAMRA based assay utilized a peptide having 20 amino acid residues as follows: Ac-EE-K(biotin)-[…](Ac)NleSTEG-K(5TMR)-EE-NH2 (SEQ ID NO: 1), wherein K(Ac) is an acetylated lysine residue and Nle is a norleucine. The peptide was labeled with the fluorophore 5TMR (excitation 540 nm/emission 580 nm) at the C-terminus. The sequence of the peptide substrate was based on p53 with several modifications. In addition, the methionine residue naturally present in the sequence was replaced with the norleucine because the methionine may be susceptible to oxidation during synthesis and purification. The Trp based assay utilized a peptide having an amino acid residues as follows: Ac-R-H-K-K(Ac)-W-NH2 (SEQ ID NO: 2).
The TAMRA based mass spectrometry assay was conducted as follows: 0.5 μM peptide substrate and 120 μM βNAD^+ was incubated with 10 nM SIRT1 for 25 minutes at 25° C. in a reaction buffer (50 mM Tris-acetate pH 8, 137 mM NaCl, 2.7 mM KCl, 1 mM MgCl2, 5 mM DTT, 0.05% BSA). The SIRT1 protein was obtained by cloning the SirT1 gene into a T7-promoter containing vector, which was then transformed and expressed in BL21(DE3) bacterial cells. Test compound was added at varying concentrations to this reaction mixture and the resulting reactions were monitored. After the 25 minute incubation with SIRT1, 10 μL of 10% formic acid was added to stop the reaction. The resulting reactions were sealed and frozen for later mass spec analysis. Determination of the amount of deacetylated substrate peptide formed (or, alternatively, the amount of O-acetyl-ADP-ribose (OAADPR) generated) by the sirtuin-mediated NAD-dependent deacetylation reaction allowed for the precise measurement of relative SIRT1 activity in the presence of varying concentrations of the test compound versus control reactions lacking the test compound.
A control for inhibition of sirtuin activity was conducted by adding 1 μL of 500 mM nicotinamide as a negative control at the start of the reaction (e.g., permits determination of maximum sirtuin inhibition). A control for activation of sirtuin activity was conducted using 10 nM of sirtuin protein, with 1 μL of DMSO in place of compound, to determine the amount of deacetylation of the substrate at a given time point within the linear range of the assay. This time point was the same as that used for test compounds and, within the linear range, the endpoint represents a change in velocity.
For the above assay, SIRT1 protein was expressed and purified as follows. The SirT1 gene was cloned into a T7-promoter containing vector and transformed into BL21(DE3). The protein was expressed by induction with 1 mM IPTG as an N-terminal His-tag fusion protein at 18° C. overnight and harvested at 30,000×g. Cells were lysed with lysozyme in lysis buffer (50 mM Tris-HCl, 2 mM Tris[2-carboxyethyl]phosphine (TCEP), 10 μM ZnCl2, 200 mM NaCl) and further treated with sonication for […] for complete lysis. The protein was purified over a Ni-NTA column (Amersham) and fractions containing pure protein were pooled, concentrated and run over a sizing column (Sephadex S200 26/60 global). The peak containing soluble protein was collected and run on an Ion-exchange column (MonoQ). Gradient elution (200 mM-500 mM NaCl) yielded pure protein. This protein was concentrated and dialyzed against dialysis buffer (20 mM Tris-HCl, 2 mM TCEP) overnight. The protein was aliquoted and frozen at −80° C. until further use.

A value given as a limit tells only on which side of the number the result lay.

In the case of `Cc1noc(C)c1-c1ccc2ncc(C(=O)Nc3ccnc(N4CCC4)c3)n2n1` [Compound 55], the “TAMRA EC1.5 (μM)” value is “C (EC1.5>25 μM)” and the Emax is less than 350%.

Regarding `Cn1cc(-c2ccc3ncc(C(=O)Nc4ccnc(N5CCCC5)c4)n3n2)cn1` [Compound 57], the “TAMRA EC1.5 (μM)” value is “C (EC1.5>25 μM)” and the Emax was less than 350%.

As to `Cc1ncccc1-c1ccc2ncc(C(=O)Nc3cccc(N4CCOCC4)n3)n2n1` [Compound 58], the “TAMRA EC1.5 (μM)” value was “B (EC1.5 1-25 μM)” and the Emax is less than 350%.

With `O=C(Nc1cccc(N2CCOCC2)n1)c1cnc2ccc(-c3cncc(C(F)F)c3)nn12` [Compound 60], the “TAMRA EC1.5 (μM)” value is reported as “A (EC1.5<1 μM)” and the Emax is less than 350%.

Consider `O=C(Nc1ccnc(N2CCCC2)c1)c1cnc2ccc(-c3cncc(C(F)F)c3)nn12` [Compound 61], for which the “TAMRA EC1.5 (μM)” value was “B (EC1.5 1-25 μM)” and the Emax was less than 350%.

Turning to `Cc1ncccc1-c1ccc2ncc(C(=O)Nc3ccnc(N4CCC4)c3)n2n1` [Compound 63], the “TAMRA EC1.5 (μM)” value is recorded as “C (EC1.5>25 μM)” and the Emax was less than 350%.

In the case of `Cc1nc(C)c(-c2ccc3ncc(C(=O)Nc4cccc(N5CCOCC5)n4)n3n2)s1` [Compound 65], the “TAMRA EC1.5 (μM)” value is reported as “A (EC1.5<1 μM)” and the Emax was less than 350%.

`O=C(Nc1cccc(N2CCCC2)n1)c1nnc2ccc(-c3ccccc3C(F)(F)F)nn12` [Compound 66]: the “TAMRA EC1.5 (μM)” value is listed as “A (EC1.5<1 μM)” and the Emax is not below 350%.

Consider `O=C(Nc1cccc(N2CCOCC2)n1)c1nnc2ccc(-c3ccccc3C(F)(F)F)nn12` [Compound 67], for which the “TAMRA EC1.5 (μM)” value is on record as “A (EC1.5<1 μM)” and the Emax was not below 350%.

Regarding `Cc1nc2ccc(-c3ccccc3C(F)(F)F)nn2c1C(=O)Nc1cccc(N2CCCC2)n1` [Compound 70], the “TAMRA EC1.5 (μM)” value is “A (EC1.5<1 μM)” and the Emax was not below 350%.

As for `Cc1nc2ccc(-c3ccccc3C(F)F)nn2c1C(=O)Nc1ccnc(N2CCOCC2)c1` [Compound 72], the “TAMRA EC1.5 (μM)” value is reported as “A (EC1.5<1 μM)” and the Emax is not below 350%.

Turning to `O=C(Nc1cccc(N2CCC2)n1)c1nnc2ccc(-c3ccccc3C(F)(F)F)nn12` [Compound 73, N-(6-(azetidin-1-yl)pyridin-2-yl)-6-(2-(trifluoromethyl)phenyl)-[1,2,4]-triazolo[4,3-b]pyridazine-3-carboxamide], the “TAMRA EC1.5 (μM)” value is given as “A (EC1.5<1 μM)” and the Emax was less than 350%.

Turning to `O=C(Nc1cc(OCC(O)CO)ccn1)c1cnc2ccc(-c3ccccc3C(F)(F)F)nn12` (stereo not drawn) [Compound 75, N-(4-(2,3-dihydroxypropoxy)pyridin-2-yl)-6-(2-(trifluoromethyl)phenyl)imidazo[1,2-b]pyridazine-3-carboxamide], the “TAMRA EC1.5 (μM)” value was “B (EC1.5 1-25 μM)” and the Emax was not below 350%.

Turning to `Cc1cc(OCC(O)CO)nc(NC(=O)c2cnc3ccc(-c4ccccc4C(F)(F)F)nn23)n1` (stereo not drawn) [Compound 76], the “TAMRA EC1.5 (μM)” value is on record as “B (EC1.5 1-25 μM)” and the Emax is not below 350%.

Consider `O=C(Nc1cccnn1)c1cnc2ccc(-c3ccccc3C(F)(F)F)nn12` [Compound 79], for which the “TAMRA EC1.5 (μM)” value is “B (EC1.5 1-25 μM)” and the Emax was not below 350%.

In the case of `O=C(Nc1cnc2ccc(-c3ccccc3C(F)(F)F)nn12)c1cccc(CN2CCOCC2)n1` [Compound 81], the “TAMRA EC1.5 (μM)” value was “A (EC1.5<1 μM)” and the Emax was not below 350%.

As to `O=C(Nc1cnc2ccc(-c3ccccc3C(F)(F)F)nn12)c1cccc(N2CCOCC2)n1` [Compound 82], the “TAMRA EC1.5 (μM)” value is recorded as “A (EC1.5<1 μM)” and the Emax was not below 350%.

As to `O=C(Nc1cnc2ccc(-c3ccccc3C(F)(F)F)nn12)c1ccccn1` [Compound 85], the “TAMRA EC1.5 (μM)” value is given as “A (EC1.5<1 μM)” and the Emax is not below 350%.

Consider `O=C(Nc1cnc2ccc(-c3ccccc3C(F)(F)F)nn12)c1ccncc1` [Compound 87], for which the “TAMRA EC1.5 (μM)” value was “C (EC1.5>25 μM)” and the Emax was less than 350%.

Turning to `O=C(Nc1cnc2ccc(-c3ccccc3C(F)(F)F)nn12)c1cnccn1` [Compound 88], the “TAMRA EC1.5 (μM)” value was “A (EC1.5<1 μM)” and the Emax is not below 350%.

Take `O=C(Nc1ccnc(OCC(O)CO)c1)c1cnc2ccc(-c3ccccc3C(F)(F)F)nn12` (stereo not drawn) [Compound 89]: the “TAMRA EC1.5 (μM)” value was “A (EC1.5<1 μM)” and the Emax was not below 350%.

In the case of `O=C(Nc1cnc2ccc(-c3ccccc3C(F)(F)F)nn12)c1ccncn1` [Compound 90], the “TAMRA EC1.5 (μM)” value is “A (EC1.5<1 μM)” and the Emax is not below 350%.

Consider `Cn1ccnc1C(=O)Nc1cnc2ccc(-c3ccccc3C(F)(F)F)nn12` [Compound 91], for which the “TAMRA EC1.5 (μM)” value is on record as “B (EC1.5 1-25 μM)” and the Emax was not below 350%.

With `O=C(Nc1ccncc1)c1cnc2ccc(-c3ccccc3Cl)nn12` [Compound 94], the “TAMRA EC1.5 (μM)” value is on record as “B (EC1.5 1-25 μM)” and the Emax is less than 350%.

In the case of `O=C(Nc1ccnc(N2CCC2)c1)c1cnc2ccc(-c3ccccc3Cl)nn12` [Compound 96], the “TAMRA EC1.5 (μM)” value is “A (EC1.5<1 μM)” and the Emax was not below 350%.

As for `Cc1cncc(NC(=O)c2cnc3ccc(-c4ccccc4C(F)(F)F)nn23)c1` [Compound 97], the “TAMRA EC1.5 (μM)” value is “B (EC1.5 1-25 μM)” and the Emax is not below 350%.

With `Cc1cc(NC(=O)c2cnc3ccc(-c4ccccc4C(F)(F)F)nn23)cc(C)n1` [Compound 99], the “TAMRA EC1.5 (μM)” value is listed as “A (EC1.5<1 μM)” and the Emax is not below 350%.

With `O=C(Nc1ccncc1F)c1cnc2ccc(-c3ccccc3C(F)(F)F)nn12` [Compound 100], the “TAMRA EC1.5 (μM)” value is listed as “A (EC1.5<1 μM)” and the Emax is not below 350%.

Take `COc1cccc(NC(=O)c2cnc3ccc(-c4ccccc4C(F)(F)F)nn23)n1` [Compound 103]: the “TAMRA EC1.5 (μM)” value was “A (EC1.5<1 μM)” and the Emax was not below 350%.

`O=C(Nc1cncnc1)c1cnc2ccc(-c3ccccc3C(F)(F)F)nn12` [Compound 106]: the “TAMRA EC1.5 (μM)” value is “B (EC1.5 1-25 μM)” and the Emax was less than 350%.

`O=C(Nc1cccnc1)c1cnc2ccc(-c3ccccc3C(F)(F)F)nn12` [Compound 108]: the “TAMRA EC1.5 (μM)” value is reported as “B (EC1.5 1-25 μM)” and the Emax is less than 350%.

On to `Cc1cnc(NC(=O)c2cnc3ccc(-c4ccccc4C(F)(F)F)nn23)s1` [Compound 109], for which the “TAMRA EC1.5 (μM)” value is “A (EC1.5<1 μM)” and the Emax is not below 350%.

Turning to `O=C(Nc1ncc(F)cc1F)c1cnc2ccc(-c3ccccc3C(F)(F)F)nn12` [Compound 111], the “TAMRA EC1.5 (μM)” value is on record as “B (EC1.5 1-25 μM)” and the Emax is less than 350%.

For the origin of these results see patent US9957271B2, “Substituted bicyclic aza-heterocycles and analogues as sirtuin modulators” (GlaxoSmithKline, LLC, priority 2012, dated 2018).
